# Measured values: patent US20190192697A1, “CHEMICAL PROBES OF LYSYL OXIDASK-LIKE 2 AND USES THEREOF” (PHARMAKEA, INC., priority 2016, published 2019)
# Where a name gives a salt, the structure may show the parent alone.
# Test system: not listed separately
# Test: Compound tissue distribution studies with 18F-PET imaging
# Format: in vivo
# Conditions: 30-50 μCi intravenously, PET imaged 90-120 minutes, naïve or bleomycin-instilled mice
# Procedure: In these studies, naïve or bleomycin-instilled mice were injected with 30-50 μCi of Compound 1-13 (^18F-labeled) intravenously and were PET imaged for 90-120 minutes following injection of the radiolabel. These animals were then sacrificed at 2.5 hours post-administration of the ^18F-labeled Compound 1-13 and tissues and blood were analyzed by scintillation counting to determine concentration of radioactivity remaining.
# To determine specific binding, a subset of mice were administered a blocking dose of Compound 1-13a or vehicle (delivered at 60 mg/kg PO) at a suitable time point prior to the PET-ligand injection, such as 2.5-4 h prior.
row,SMILES,tissue distribution of the 18F-labeled ligand
1,"NCc1cc(Oc2cccc(C(=O)N3C[C@@H](O)[C@H]([18F])C3)c2)nc(C(F)(F)F)c1 [Compound 1-13, (3-((4-(Aminomethyl)-6-(trifluoromethyl)pyridin-2-yl)oxy)phenyl)((3R,4R)-3-^18fluoro-4-hydroxypyrrolidin-1-yl)methanone hydrochloride]","Highest initial concentrations of ligand were observed in liver, kidney and lung"

# Molecular target: T1, LOXL2 (Homo sapiens, UniProt Q9Y4K0)
# T1 sequence (Q9Y4K0 26-774): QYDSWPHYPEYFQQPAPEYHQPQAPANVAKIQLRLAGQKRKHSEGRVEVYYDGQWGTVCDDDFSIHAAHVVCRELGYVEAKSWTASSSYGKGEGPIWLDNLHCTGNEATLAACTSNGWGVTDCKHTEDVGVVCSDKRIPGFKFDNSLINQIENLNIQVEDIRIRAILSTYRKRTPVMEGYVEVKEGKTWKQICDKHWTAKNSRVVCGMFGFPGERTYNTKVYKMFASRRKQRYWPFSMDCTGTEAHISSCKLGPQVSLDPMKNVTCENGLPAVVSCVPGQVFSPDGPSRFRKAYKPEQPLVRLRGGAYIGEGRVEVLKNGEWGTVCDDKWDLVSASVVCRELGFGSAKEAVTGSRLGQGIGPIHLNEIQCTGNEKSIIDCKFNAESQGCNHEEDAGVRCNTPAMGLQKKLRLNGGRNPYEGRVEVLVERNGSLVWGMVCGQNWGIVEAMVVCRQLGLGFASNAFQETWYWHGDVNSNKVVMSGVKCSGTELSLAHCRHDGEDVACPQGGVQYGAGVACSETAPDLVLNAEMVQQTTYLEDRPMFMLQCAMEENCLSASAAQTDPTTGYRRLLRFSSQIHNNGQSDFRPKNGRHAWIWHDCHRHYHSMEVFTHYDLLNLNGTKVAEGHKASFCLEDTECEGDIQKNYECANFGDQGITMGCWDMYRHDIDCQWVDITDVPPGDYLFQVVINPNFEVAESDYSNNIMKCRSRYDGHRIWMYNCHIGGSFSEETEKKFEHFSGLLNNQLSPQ
# Test: Erenna-based fluorescence magnetic bead assay for free/unbound LOXL2
# Format: binding
# Conditions: 34 nM Compound 1-2, 15 hours at room temperature
# Procedure: Following the incubation, 10 μg of streptavidin-coated magnetic microparticles (MPs) are added to each well and incubated for 30 min-2 hours at room temperature with shaking. The MPs are washed once using magnetic separation and 20 μL of a fluorescently conjugated anti-LOXL2 antibody is added to each well (for example, R&D Systems anti-LOXL2 Goat IgG polyclonal antibody conjugated to AlexaFluor 647) and incubated for 30 min-2 hours at room temperature with shaking. The MPs are washed four times with magnetic separation and transferred to a new plate. All liquid is aspirated from the plate and elution buffer added and incubated for 10 minutes at room temperature with shaking. The eluate is transferred to a 384 well assay plate containing neutralization buffer, sealed and read on Erenna®.
row,SMILES,signal of free/unbound LOXL2 versus LOXL2 concentration
1,"Cl.NCc1cc(Oc2cccc(C(=O)NCCOCCOCCOCCOCCOCCOCCOCCOCCOCCOCCOCCNC(=O)CCCC[C@@H]3SC[C@@H]4NC(=O)N[C@@H]43)c2)nc(C(F)(F)F)c1 [Compound 1-2, 3-((4-(Aminomethyl)-6-(trifluoromethyl)pyridin-2-yl)oxy)-N-(37-oxo-41-((3aS,4S,6aR)-2-oxohexahydro-1H-thieno[3,4-d]imidazol-4-yl)-3,6,9,12,15,18,21,24,27,30,33-undecaoxa-36-azahentetracontyl)benzamide hydrochloride]",linear increase in signal of free/unbound LOXL2 up to 500 pg/mL

# Molecular target: T1, LOXL2
# Test: Human LOXL2 amine oxidase activity assay (Amplex Red)
# Format: biochemical
# Parameters: expressed in transfected cells; host or cells: CHO cells stably expressing human LOXL2; 10-20x concentrated conditioned media
# Conditions: concentrated conditioned media from CHO cells expressing human LOXL2; 2 h at 37° C. pre-incubation
# Procedure: LOXL2 amine oxidase activity is evaluated by measuring Amplex Red fluorescence using 10-20× concentrated conditioned media from CHO cells stably expressing human LOXL2. To assay for amine oxidase activity, 10 μL of the concentrated conditioned media is incubated with 2 μL of test compound in DMSO and 73 μL Assay Buffer (50 mM Borate Buffer, pH8) for 2 h at 37° C. After the 2 h incubation, 5 μL of 10 mM 1,5-diaminopentane (DAP) diluted in Assay Buffer and 10 μL of Amplex Red Mix (8.5 μL Assay Buffer+0.5 μL of 10 mM Amplex Red+1 μL of 500 U/mL Horseradish Peroxidase) are added and the plate mixed and immediately placed on the FlexStaion for fluorescence measurements. Fluorescence is read in kinetic mode every 2 min for 1 hour at excitation=544 nm and emission=590 nm. The amine oxidase activity is calculated from the slope of the linear portion of the curve.
row,IC50 [nM],SMILES
1,< 300,"Cc1cc(=O)oc2cc(NC(=O)c3cccc(Oc4cc(CN)cc(C(F)(F)F)n4)c3)ccc12 [Compound 1-5, 3-((4-(Aminomethyl)-6-(trifluoromethyl)pyridin-2-yl)oxy)-N-(4-methyl-2-oxo-2H-chromen-7-yl)benzamide hydrochloride]"
2,< 300,"CN1/C(=C/C=C/C=C/C2=[N+](CCCCCC(=O)NCCCn3cc(CCCCNC(=O)c4cccc(Oc5cc(CN)cc(C(F)(F)F)n5)c4)nn3)c3ccccc3C2(C)C)C(C)(C)c2ccccc21 [Compound 1-4, 1-(6-((3-(4-(4-(3-((4-(Aminomethyl)-6-(trifluoromethyl)pyridin-2-yl)oxy)benzamido)butyl)-1H-1,2,3-triazol-1-yl)propyl)amino)-6-oxohexyl)-3,3-dimethyl-2-((1E,3E,5E)-5-(1,3,3-trimethylindolin-2-ylidene)penta-1,3-dien-1-yl)-3H-indol-1-ium chloride hydrochloride]"
3,300 to 1000,"CN(C)c1cccc2c(S(=O)(=O)Nc3cccc(Oc4cc(CN)cc(C(F)(F)F)n4)c3)cccc12 [Compound 1-6, N-(3-((4-(Aminomethyl)-6-(trifluoromethyl)pyridin-2-yl)oxy)phenyl)-5-(dimethylamino)naphthalene-1-sulfonamide hydrochloride]"

# Continued, compound first:
row,SMILES,IC50 [nM]
1,"NCc1cc(Oc2cccc(C(=O)NCCOCCOCCOCCNC(=O)CCCC[C@@H]3SC[C@@H]4NC(=O)N[C@@H]43)c2)nc(C(F)(F)F)c1 [Compound 1-19, 3-((4-(Aminomethyl)-6-(trifluoromethyl)pyridin-2-yl)oxy)-N-(13-oxo-17-((3aS,4S,6aR)-2-oxohexahydro-1H-thieno[3,4-d]imidazol-4-yl)-3,6,9-trioxa-12-azaheptadecyl)benzamide hydrochloride]",< 300
2,"NCc1cc(Oc2cccc(C(=O)NCCCCCNC(=O)CCCC[C@@H]3SC[C@@H]4NC(=O)N[C@@H]43)c2)nc(C(F)(F)F)c1 [Compound 1-1, 3-((4-(Aminomethyl)-6-(trifluoromethyl)pyridin-2-yl)oxy)-N-(5-(5-((3aS,4S,6aR)-2-oxohexahydro-1H-thieno[3,4-d]imidazol-4-yl)pentanamido)pentyl)benzamide hydrochloride]",< 300
3,"CN1/C(=C/C=C/C2=[N+](CCCCCC(=O)NCCCn3cc(CCCCNC(=O)c4cccc(Oc5cc(CN)cc(C(F)(F)F)n5)c4)nn3)c3ccccc3C2(C)C)C(C)(C)c2ccccc21 [Compound 1-3, 1-(6-((3-(4-(4-(3-((4-(Aminomethyl)-6-(trifluoromethyl)pyridin-2-yl)oxy)benzamido)butyl)-1H-1,2,3-triazol-1-yl)propyl)amino)-6-oxohexyl)-3,3-dimethyl-2-((1E,3E)-3-(1,3,3-trimethylindolin-2-ylidene)prop-1-en-1-yl)-3H-indol-1-ium chloride hydrochloride]",< 300
4,"NCc1cc(Oc2cccc(C(=O)NCCNC(=O)CCCCCNC(=O)CCCCCNC(=O)CCCC[C@@H]3SC[C@@H]4NC(=O)N[C@@H]43)c2)nc(C(F)(F)F)c1 [Compound 1-20, 3-((4-(Aminomethyl)-6-(trifluoromethyl)pyridin-2-yl)oxy)-N-(2-(6-(6-(5-((3aS,4S,6aR)-2-oxohexahydro-1H-thieno[3,4-d]imidazol-4-yl)pentanamido)hexanamido)hexanamido)ethyl)benzamide hydrochloride]",< 300
5,"Cl.NCc1cc(Oc2cccc(C(=O)NCCOCCOCCOCCOCCOCCOCCOCCOCCOCCOCCOCCNC(=O)CCCC[C@@H]3SC[C@@H]4NC(=O)N[C@@H]43)c2)nc(C(F)(F)F)c1 [Compound 1-2, 3-((4-(Aminomethyl)-6-(trifluoromethyl)pyridin-2-yl)oxy)-N-(37-oxo-41-((3aS,4S,6aR)-2-oxohexahydro-1H-thieno[3,4-d]imidazol-4-yl)-3,6,9,12,15,18,21,24,27,30,33-undecaoxa-36-azahentetracontyl)benzamide hydrochloride]",< 300
6,"CC1(C)C(/C=C/C(=C/C=C2\N(CCCS(=O)(=O)O)c3ccc4c(S(=O)(=O)O)cc(S(=O)(=O)O)cc4c3C2(C)C)c2cccc(CCCCC(=O)NCCCCCCNC(=O)c3cccc(Oc4cc(CN)cc(C(F)(F)F)n4)c3)c2)=[N+](CCCS(=O)(=O)O)c2ccc3c(S(=O)(=O)O)cc(S(=O)(=O)O)cc3c21 [Compound 1-22, 3-(2-((1E,3Z,5Z)-3-(3-(5-((6-(3-((4-(Aminomethyl)-6-(trifluoromethyl)pyridin-2-yl)oxy)benzamido)hexyl)amino)-5-oxopentyl)phenyl)-5-(1,1-dimethyl-6,8-disulfo-3-(3-sulfopropyl)-1H-benzo[e]indol-2(3H)-ylidene)penta-1,3-dien-1-yl)-1,1-dimethyl-6,8-disulfo-1H-benzo[e]indol-3-ium-3-yl)propane-1-sulfonate trifluoroacetate]",> 1000
